Like-named read-outs stand apart in the source and are kept apart here.
What was measured:
[1] = molecular target: rCYP2C19 (Homo sapiens, UniProt P33261); experiment: luminogenic P450-Glo CYP450 inhibition assay, rCYP2C19; conditions: three independent experiments
Description: (§1) The luminescent cytochrome P450 assay was used to determine CYP450-mediated (CYP1A2, 2C9, 2C19, 2D6, and 3A4) metabolism of atractylodin and β-eudesmol. The assay consisted of each recombinant human CYP450 (rCYP450), control membranes lacking P450 activity, a luminogenic CYP450 substrate (luciferin-ME substrate for rCYP1A2, luciferin-H substrate for rCYP2C9, luciferin-H EGE substrate for rCYP2C19, luciferin-ME EGE substrate for rCYP2D6, and luciferin-IPA substrate for rCYP3A4), KPO4 buffer, luciferin free water, NADPH regeneration system, and a luciferin detection reagent. The rCYP450 enzymes were generated from a baculovirus-infected insect cell expression system. The concentrations of the recombinant CYPs used were 0.5 (rCYP1A2 and rCYP2C9), 0.25 (rCYP2C19 and rCYP2D6) or 0.2 (rCYP3A4) pmol (0.5μL) per reaction. […] A luciferin product was produced after adding 25 µL of NADPH Regeneration System (solution A, solution B, and luciferin-free water) and incubated at 37 °C for 10 (rCYP1A2 and rCYP3A4), 20 (rCYP2C19 and rCYP2C9) or 30 (rCYP2D6) minutes. The reaction was stopped and converted to a luminescent signal after adding Luciferin Detection Reagent (50 µL) and incubated at 25 °C for 20 min. The luminescence signals obtained were determined using a Varioskan® Flash microplate reader (Waltham, MA, USA). The magnitude of luminescence in all of the samples represented CYP450 activity. […] All stock solutions were diluted with luciferin-free water until the final concentration of organic solvent was less than 0.25% (v/v) of the total reaction. The concentration range of atractylodin and β-eudesmol used were 2.74–686 µM and 2.25–562 µM, respectively. […] The concentration that inhibited the activity of each rCYP450 by 50% (IC50) was calculated using Calcusyn software (Cambridge, UK). Data are reported as the median (range) of the three independent experiments.

[2] = molecular target: T1, rCYP1A2 (Homo sapiens, UniProt P05177); experiment: luminogenic P450-Glo CYP450 inhibition assay, rCYP1A2; conditions: three independent experiments
T1 sequence (P05177 1-516): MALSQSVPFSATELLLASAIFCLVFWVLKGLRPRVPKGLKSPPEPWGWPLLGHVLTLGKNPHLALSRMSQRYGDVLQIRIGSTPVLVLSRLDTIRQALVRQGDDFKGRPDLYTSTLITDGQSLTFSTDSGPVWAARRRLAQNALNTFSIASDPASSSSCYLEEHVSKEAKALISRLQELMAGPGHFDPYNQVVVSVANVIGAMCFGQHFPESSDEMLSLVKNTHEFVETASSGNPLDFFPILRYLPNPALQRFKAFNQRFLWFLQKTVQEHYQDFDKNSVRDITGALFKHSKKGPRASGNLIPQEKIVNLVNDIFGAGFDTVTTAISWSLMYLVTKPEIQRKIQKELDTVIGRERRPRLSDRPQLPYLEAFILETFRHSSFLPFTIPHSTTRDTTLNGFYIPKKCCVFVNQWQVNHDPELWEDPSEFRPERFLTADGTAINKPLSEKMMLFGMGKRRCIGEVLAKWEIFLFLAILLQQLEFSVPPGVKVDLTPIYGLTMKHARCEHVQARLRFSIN
Description: as §1

[3] = test system: mCYP3A11; experiment: ex vivo mCYP3A11 protein expression in mouse liver microsomes (western blot); conditions: daily oral 100 mg/kg body weight
Description: Eight-week-old male ICR (Imprinting Control Region) mice weighing 35–40 g were used to investigate the modulatory effects of atractylodin and β-eudesmol on mCYP1A2 and mCYP3A11. The study protocol was approved by the Ethics Committee for Animal Research at Thammasat University (protocol number 016/2020). All animals were obtained from Nomura Siam International Co., Ltd. (Bangkok, Thailand). The animals were acclimatized for one week before the experiments. A total of 36 mice were allocated to three groups (i) control group (3 mice), (ii) atractylodin-treated group, and (iii) β-eudesmol-treated group. For atractylodin and β-eudesmol-treated groups, animals were fed with 100 mg/kg body weight of each compound for 1, 7, 14, and 21 (3 mice for each dose). Experiments were performed under the guidelines for the care and use of laboratory animals in a controlled environment of 12 h dark/light cycle, temperature 22 ± 2 °C, and relative humidity 30–70% at the Thammasat University Animal Center. Animals were observed daily for changes in signs and symptoms by a veterinarian. Mice were allowed access to the food pellets and water ad libitum.
Mouse liver samples were cut into small pieces, and the liver microsomes were prepared as described previously. The concentrations of proteins in the microsomes were determined using Pierce™ BCA Protein Assay Kit. mCYP1A2 and mCYP3A11 activities were evaluated based on phenacetin O-deethylation and nifedipine oxidation activities, respectively. The incubation mixture of 500 µL consisted of microsomes, substrate ([…]), and NADPH. […] The final organic solvent concentration in the incubation mixture was not higher than 1%. Each experiment was repeated three times (duplicated each). Determination of the concentrations of metabolites of mCYP1A2 (paracetamol) and mCYP3A11 (dehydronifedipine) in the reaction was performed using HPLC Agilent 1260 Infinity II with mobile gradient phase between methanol and distilled water at an initial ratio of 20:80 (v:v) and UV detection (240 nm). Calibration curves for both CYP450 activities were created over a concentration range of 1–50 µM. Oxidized nifedipine concentrations were determined using HPLC as follows: UV detection at 235 nm with an isocratic mobile phase consisting of methanol and distilled water (70:30, v:v). […] In each analytical batch, quality control (QC) samples were run in duplicate at low, medium, and high concentrations. Acceptance criteria were four out of six QC analyses falling within 100 ± 15% of the nominal values.
The microsomal protein concentration for both mCYP1A2 and […] was 25 μg protein per lane. Proteins were denatured by combining equal volumes of liver microsomes with sample buffer (1:19 (v:v) of 2-mercaptoethanol and 2x Laemmle buffer) and heating at 100 °C for 5 min. Proteins were separated using 12% SDS-PAGE according to their size characteristics before being migrated to nitrocellulose blotting membranes.

[4] = molecular target: rCYP2D6 (Homo sapiens, UniProt P10635); experiment: luminogenic P450-Glo CYP450 inhibition assay, rCYP2D6; conditions: three independent experiments
Description: as §1

Sequence of rCYP2C19 (P33261 whole entry): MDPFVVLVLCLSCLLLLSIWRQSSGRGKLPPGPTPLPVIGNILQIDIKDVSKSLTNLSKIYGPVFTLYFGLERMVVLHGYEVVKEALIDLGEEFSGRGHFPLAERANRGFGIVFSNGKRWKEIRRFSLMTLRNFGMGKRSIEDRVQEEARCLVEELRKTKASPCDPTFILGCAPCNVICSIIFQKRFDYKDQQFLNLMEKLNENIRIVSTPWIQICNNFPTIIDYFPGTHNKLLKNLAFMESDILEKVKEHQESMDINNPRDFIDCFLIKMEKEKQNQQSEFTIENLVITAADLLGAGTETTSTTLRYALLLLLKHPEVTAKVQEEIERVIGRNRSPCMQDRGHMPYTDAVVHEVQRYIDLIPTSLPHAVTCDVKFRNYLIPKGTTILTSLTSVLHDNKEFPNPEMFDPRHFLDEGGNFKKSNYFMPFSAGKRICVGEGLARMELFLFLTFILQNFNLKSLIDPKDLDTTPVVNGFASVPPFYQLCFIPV
Sequence of rCYP2D6 (P10635 whole entry): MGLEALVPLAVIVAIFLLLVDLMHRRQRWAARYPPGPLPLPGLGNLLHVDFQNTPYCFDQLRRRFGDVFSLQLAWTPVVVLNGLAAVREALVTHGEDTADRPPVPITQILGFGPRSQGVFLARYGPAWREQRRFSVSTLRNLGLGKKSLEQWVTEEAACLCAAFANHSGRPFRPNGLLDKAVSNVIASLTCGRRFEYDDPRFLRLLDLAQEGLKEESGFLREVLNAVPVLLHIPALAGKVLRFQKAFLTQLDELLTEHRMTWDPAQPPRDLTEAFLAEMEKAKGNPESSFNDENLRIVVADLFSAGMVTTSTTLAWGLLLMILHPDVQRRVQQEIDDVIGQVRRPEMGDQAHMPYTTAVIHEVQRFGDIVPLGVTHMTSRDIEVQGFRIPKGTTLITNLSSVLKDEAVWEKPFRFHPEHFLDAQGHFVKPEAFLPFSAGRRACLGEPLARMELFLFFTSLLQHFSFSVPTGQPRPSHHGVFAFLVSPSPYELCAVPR

## C=C1CCC[C@]2(C)CC[C@@H](C(C)(C)O)C[C@@H]12 [β-Eudesmol]
[1]; Median IC50 (Range) rCYP2C19, median (range)
  IC50: 173 µM
[2]; Median IC50 (Range) rCYP1A2, median (range)
  IC50: > 562 µM
[3]; 1 day, control 1.73
  Protein expression ratio of mCYP3A11: 1.50
[3]; 7 days, control 1.57
  Protein expression ratio of mCYP3A11: 1.62
[3]; 14 days, control 2.31, listed as β-eudesmol, 100 mg/kg
  Protein expression ratio of mCYP3A11: significantly downregulated
[3]; 14 days, control 2.31, listed as β‐eudesmol, 100 mg/kg
  Protein expression ratio of mCYP3A11: 1.60
[3]; 21 days, control 2.18, listed as β-eudesmol, 100 mg/kg
  Protein expression ratio of mCYP3A11: significantly downregulated
[3]; 21 days, control 2.18, listed as β‐eudesmol, 100 mg/kg
  Protein expression ratio of mCYP3A11: 1.42
[4]; Median IC50 (Range) rCYP2D6, median (range)
  IC50: > 562 µM

## C/C=C/C#CC#C/C=C/c1ccco1 [Atractylodin]
[1]; median (range)
  Median IC50 (Range) rCYP2C19: >125 µg/mL
[1]; read-out: Median IC50 (Range) rCYP2C19, median (range)
  IC50: > 686 µM
[2]; median (range)
  Median IC50 (Range) rCYP1A2: 90.6 (83.8–102.3) µg/ml
[2]; read-out: Median IC50 (Range) rCYP1A2, median (range)
  IC50: 497 µM
[3]; 1 day, control 1.73
  Protein expression ratio of mCYP3A11: 1.82
[3]; 7 days, control 1.57, 100 mg/kg
  Protein expression ratio of mCYP3A11: significantly downregulated
[3]; 7 days, control 1.57, listed as Atactylodin, 100 mg/kg
  Protein expression ratio of mCYP3A11: 1.26
[3]; 14 days, control 2.31, 100 mg/kg
  Protein expression ratio of mCYP3A11: significantly downregulated
[3]; 14 days, control 2.31, listed as Atactylodin, 100 mg/kg
  Protein expression ratio of mCYP3A11: 1.67
[3]; 21 days, control 2.18, 100 mg/kg
  Protein expression ratio of mCYP3A11: significantly downregulated
[3]; 21 days, control 2.18, listed as Atactylodin, 100 mg/kg
  Protein expression ratio of mCYP3A11: 1.41
[4]; median (range)
  Median IC50 (Range) rCYP2D6: >125 µg/mL
[4]; read-out: Median IC50 (Range) rCYP2D6, median (range)
  IC50: > 686 µM
